Reference: patent US20090269351A1, “METHOD OF DIAGNOSING AND TREATING GLIOMA” (Genentech, Inc., priority 2006, published 2009)

What was measured:
tumor = conditions: nude mouse model, Teicher et al. 2002; cited from earlier work
GBM-derived neurospheres = assay: Neurosphere growth with growth factors; assay type: cell-based, human; conditions: for neurosphere growth: maximal concentration of 20 ng/ml
Source text: Previously described GBM cell lines were used for the instant in vitro studies (Hartman et al., Internat. J. One. 15: 975-982 (1999)). To create neurosphere cultures, two cell lines (G63 and G69) were sorted using a CD133 cell isolation kit (Miltenyi Biotech) according to manufacturer's instructions, and maintained in culture as described for primary GBM specimens (Singh et al., Nature 432: 396-401 (2004)). All neurosphere cultures were maintained in Neurobasal medium (Invitrogen) with N2 supplement (Invitrogen) and NSF1 (Cambrex). For growth studies, both EGF and IGF2 were added at a concentration of 20 ng/ml. Neurospheres of primary GBM were obtained as unsorted dissociate of primary tumor (from Drs. M. Westphal and K. Lamszuz, Univ. Hamburg), expanded and maintained under the same conditions described for cel line-derived neurospheres. Neurosphere assays were performed in triplicate.
When IGF2-dependent neurospheres were disassociated and subjected to a proliferation assay using increasing concentrations of EGF or IGF2, both growth factors induced rapid growth. The growth rate based on growth factor dosage produced an identical growth curve for each growth factor (FIG. 3B).

Compound | anti-tumor effect (tumor) | neurosphere growth (GBM-derived neurospheres) | proliferative response of neurospheres compared with EGF (GBM-derived neurospheres; neurosphere system)
Cl.Cn1cc(C2=C(c3cn(C4CCN(Cc5ccccn5)CC4)c4ccccc34)C(=O)NC2=O)c2ccccc21 [317615-HCL] | anti-tumor effect |  | 
EGF: growth factor added to neurosphere cultures (NSDSECPLSHDGYCLHDGVCMYIEALDKYACNCVVGYIGERCQYRDLKWWELR; Epidermal growth factor; UniProt P01133 971-1023, looked up) |  | proliferated rapidly | 
IGF2: Recombinant IGF2 (R&D Systems, 292-G2), growth factor |  | proliferated rapidly | indistinguishable from the response to EGF
